Results taken from PubChem BioAssay AID2060884 (Molecular Pharmacology Branch, DTP, NCI, 2025).
pIC50: −log10 of the molar value.

Test system: NCI-H929 complex spheroids, viability % test/control
Assay: Anticancer human tumor NCI-H929 cell line growth inhibition [RAS];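 also: compound exposure lasted seven days before viability was read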
Conditions: for pIC50: curve of first compound; for viability, T/C: stronger effect = lower value
Source text: RAS pathway inhibitors in Combinations in Complex Spheroids
A high-throughput screen of multi-cell type tumor spheroids was designed to identify active combinations of RAS pathway inhibitors and targeted small molecules. Complex spheroids include a stromal component modeled by human endothelial cells (HUVEC) and fibroblasts modeled by human mesenchymal stem cells (MSCs). The concentration ranges selected for each drug and investigational agent were based upon clinically achievable concentrations if the clinical Cmax of the agent was known.
Compounds. The drugs and investigational agents: abemaciclib (NSC768073), cobimetinib (NSC768068), divarasib (GDC6063, NSC841802), docetaxel (NSC628503), GDC-1971 (RLY-1971, NSC841576), gemcitabine (NSC613327), inavolisib (NSC800729), ipatasertib (NSC767898), KB-0742 (NSC834161), MRTX-1133 (NSC836407), osimertinib (NSC779217), RMC-4630 (NSC839698), RMC-6236 (NSC851965), RMC-6291 (NSC852671), Ro-3306 (NSC812927), sapanisertib (NSC764658), SN-38 (NSC673596), staurosporine (NSC755774), SY5609 (NSC837396), and tovorafenib (DAY101, NSC766906), were obtained from the National Cancer Institute (NCI) Developmental Therapeutics Program Chemical Repository. The FDA-approved anticancer drug set is available from the NCI Developmental Therapeutics Program. […] The stock solutions were prepared in dimethyl sulfoxide (DMSO, Sigma-Aldrich, St. Louis, MO, cat. D2650) at 800-fold the tested concentration and stored at -70 degrees C prior to their use. All drugs and investigational agents were tested over a range starting from a high concentration at or near the clinical Cmax and decreasing in half-log increments. If the clinical Cmax for an agent had not been determined, the highest concentration tested was 10 microM.
Cell Culture. All cells were maintained in an incubator at 37 degrees C and 5% CO2 with 95% humidity. The PDC lines were cultured according to standard operating procedures established by the NCI PDMR. All PDCs were thawed and cultured in Matrigel-coated flasks prepared with a working solution of 1X Ham's F-12 nutrient mix, without supplementation (Invitrogen, Waltham, MA, cat. 11765054), 100 U/mL penicillin-streptomycin (Invitrogen, cat. 15140122), and 2.5% Matrigel (Corning Inc., Corning, NY, cat. 354248) for the first three passages. The 362531-283-R-J2-PDC and 782815-120-R-J1-PDC lines were cultured in 6C/Colon 1B media, which includes advanced DMEM/F-12 (Thermo Fisher Scientific, cat. 12634028), 10 mM HEPES (Thermo Fisher Scientific, cat. 15630080), 1X GlutaMAX supplement (Thermo Fisher Scientific, cat. 35050061), 0.1 mg/mL primocin (InvivoGen, San Diego, CA, cat. ant-pm-2), 10% defined fetal bovine serum, heat inactivated (HyClone Laboratories Inc., Logan, UT, cat. SH30070.03HI), 50% L-WRN conditioned media (ATCC, cat. CRL-3276), 1.25 mM N-Acetyl-L-cysteine (Sigma-Aldrich, cat. A9165), 10 mM nicotinamide (Sigma-Aldrich, cat. N0636), 1X B-27 supplement (Thermo Fisher Scientific, cat. 17504044), 1X N-2 supplement (Thermo Fisher Scientific, cat. 17502048), 50 ng/mL human EGF (Thermo Fisher Scientific, cat. PHG0311), and 10 microM Y-27632 dihydrochloride (Tocris Bioscience, cat. 1254). The K12877-001-R-J1-PDC line was cultured in 6I media, which includes all 6C/Colon 1B media plus 10 ng/mL human FGF-10 (PeproTech, cat. 100-26), 1 ng/mL human FGF-2 (PeproTech, cat. 100-18B), 1 µM prostaglandin E2 (Tocris Bioscience, cat. 2296), […] hydrocortisone (Sigma-Aldrich, cat. H4001), and […] bovine insulin (Sigma-Aldrich, cat. I6634). The K86415-001-R-J1-PDC line was cultured in 6D media, which includes all 6C/Colon 1B media components minus the L-WRN conditioned media. The 485176-168-R4-J1-PDC was cultured in PANC media, which includes all 6C/Colon 1B media plus 100 ng/mL human FGF-10 (PeproTech, cat. 100-26), 500 nM SB-431542 (Selleckchem, cat. S1067), and 10 nM gastrin (Tocris Bioscience, cat. 3006). […]

[1] = second compound 0.0316 µM, first compound 0.00316 µM
[2] = second compound 0.0316 µM, first compound 0.01 µM
[3] = second compound 0.0316 µM, first compound 0.0316 µM
[4] = second compound 0.0316 µM, first compound 0.1 µM
[5] = second compound 0.0316 µM, first compound 0.316 µM
[6] = second compound 0.0316 µM, first compound 1 µM
[7] = second compound 0.1 µM, first compound 0.00316 µM
[8] = second compound 0.1 µM, first compound 0.01 µM
[9] = second compound 0.1 µM, first compound 0.0316 µM
[10] = second compound 0.1 µM, first compound 0.1 µM
[11] = second compound 0.1 µM, first compound 0.316 µM
[12] = second compound 0.1 µM, first compound 1 µM
[13] = second compound 0.316 µM, first compound 0.00316 µM
[14] = second compound 0.316 µM, first compound 0.01 µM
[15] = second compound 0.316 µM, first compound 0.0316 µM
[16] = second compound 0.316 µM, first compound 0.1 µM
[17] = second compound 0.316 µM, first compound 0.316 µM
[18] = second compound 0.316 µM, first compound 1 µM
[19] = second compound 1 µM, first compound 0.00316 µM
[20] = second compound 1 µM, first compound 0.01 µM
[21] = second compound 1 µM, first compound 0.0316 µM
[22] = second compound 1 µM, first compound 0.1 µM
[23] = second compound 1 µM, first compound 0.316 µM
[24] = second compound 1 µM, first compound 1 µM
[25] = second compound 3.16 µM, first compound 0.00316 µM
[26] = second compound 3.16 µM, first compound 0.01 µM
[27] = second compound 3.16 µM, first compound 0.0316 µM
[28] = second compound 3.16 µM, first compound 0.1 µM
[29] = second compound 3.16 µM, first compound 0.316 µM
[30] = second compound 3.16 µM, first compound 1 µM
[31] = second compound 10 µM, first compound 0.00316 µM
[32] = second compound 10 µM, first compound 0.01 µM
[33] = second compound 10 µM, first compound 0.0316 µM
[34] = second compound 10 µM, first compound 0.1 µM
[35] = second compound 10 µM, first compound 0.316 µM
[36] = second compound 10 µM, first compound 1 µM

With `C=CC(=O)Nc1cc(Nc2nccc(-c3cn(C)c4ccccc34)n2)c(OC)cc1N(C)CCN(C)C` + C#Cc1c(F)ccc2cc(O)cc(-c3ncc4c(N5CC6CCC(C5)N6)nc(OCC56CCCN5CC(F)C6)nc4c3F)c12 the pIC50 (second compound 0.0316 µM) was under 6.00, the pIC50 (second compound 0.1 µM) was under 6.00 and the pIC50 (second compound 0.316 µM) was under 6.00. It also gave a pIC50 (second compound 1 µM) of under 6.00, a pIC50 (second compound 3.16 µM) of under 6.00 and a pIC50 (second compound 10 µM) of under 6.00. It also gave a viability, T/C [1] of 101%, a viability, T/C [2] of 94.1% and a viability, T/C [3] of 101%. It also gave a viability, T/C [4] of 95.4%, a viability, T/C [5] of 99.7% and a viability, T/C [6] of 98.8%. The viability, T/C [7] was 96.8%, the viability, T/C [8] was 97.5% and the viability, T/C [9] was 102%. It also gave a viability, T/C [10] of 98.6%, a viability, T/C [11] of 101% and a viability, T/C [12] of 102%. The viability, T/C [13] was 98.1%, the viability, T/C [14] was 101% and the viability, T/C [15] was 103%. For the same molecule, the viability, T/C [16] was 99.2%, the viability, T/C [17] was 104% and the viability, T/C [18] was 101%. For the same molecule, the viability, T/C [19] was 94%, the viability, T/C [20] was 97.2% and the viability, T/C [21] was 106%. For the same molecule, the viability, T/C [22] was 102%, the viability, T/C [23] was 102% and the viability, T/C [24] was 102%. For the same molecule, the viability, T/C [25] was 101%, the viability, T/C [26] was 97.8% and the viability, T/C [27] was 103%. The viability, T/C [28] was 98.8%, the viability, T/C [29] was 102% and the viability, T/C [30] was 104%. The viability, T/C [31] was 94%, the viability, T/C [32] was 98.8% and the viability, T/C [33] was 94.8%. For the same molecule, the viability, T/C [34] was 102%, the viability, T/C [35] was 99.1% and the viability, T/C [36] was 98.3%.

`O=C(c1ccc(F)c(F)c1Nc1ccc(I)cc1F)N1CC(O)([C@@H]2CCCCN2)C1` + C#Cc1c(F)ccc2cc(O)cc(-c3ncc4c(N5CC6CCC(C5)N6)nc(OCC56CCCN5CC(F)C6)nc4c3F)c12 showed a pIC50 (second compound 0.0316 µM) of under 6.00, a pIC50 (second compound 0.1 µM) of under 6.00 and a pIC50 (second compound 0.316 µM) of under 6.00. For the same molecule, the pIC50 (second compound 1 µM) was under 6.00, the pIC50 (second compound 3.16 µM) was 6.09 and the pIC50 (second compound 10 µM) was 6.21. The viability, T/C [1] was 83.7%, the viability, T/C [2] was 91.4% and the viability, T/C [3] was 84.5%. For the same molecule, the viability, T/C [4] was 91.7%, the viability, T/C [5] was 113% and the viability, T/C [6] was 60.2%. The viability, T/C [7] was 96.5%, the viability, T/C [8] was 91.3% and the viability, T/C [9] was 84.4%. The viability, T/C [10] was 98.7%, the viability, T/C [11] was 114% and the viability, T/C [12] was 60%. For the same molecule, the viability, T/C [13] was 95%, the viability, T/C [14] was 91% and the viability, T/C [15] was 82.3%. For the same molecule, the viability, T/C [16] was 95%, the viability, T/C [17] was 115% and the viability, T/C [18] was 54%. It also gave a viability, T/C [19] of 90.8%, a viability, T/C [20] of 92.7% and a viability, T/C [21] of 85.4%. For the same molecule, the viability, T/C [22] was 93.5%, the viability, T/C [23] was 116% and the viability, T/C [24] was 50.6%. It also gave a viability, T/C [25] of 90.2%, a viability, T/C [26] of 91.2% and a viability, T/C [27] of 81%. It also gave a viability, T/C [28] of 94.5%, a viability, T/C [29] of 118% and a viability, T/C [30] of 40.7%. The viability, T/C [31] was 94%, the viability, T/C [32] was 94.1% and the viability, T/C [33] was 90.2%. It also gave a viability, T/C [34] of 95.4%, a viability, T/C [35] of 115% and a viability, T/C [36] of 14.8%.
